US20230121689A1, “CEPHALOSPORIN ANTIBACTERIAL COMPOUND AND PHARMACEUTICAL APPLICATION THEREOF” (priority 2020, published 2023)
Converted amounts (≈) assume the structure as drawn. Like-named read-outs stand apart in the source and are kept apart here.

Legend:
[1] = system: Carbapenem-resistant Acinetobacter baumannii (CRAB); assay: Test Example 1: antibacterial activity test (MIC); assay type: cell-based
Protocol: (§1) The test compounds were diluted in a gradient and used for an MIC assay on the test strains. The test compounds at an initial assay concentration of 32 μg/mL were diluted in a 2-fold gradient (11 concentration points in total), and two duplicate wells were set for each concentration. Additional wells without drug dosing were set as growth controls. The minimum inhibitory concentration (MIC) assay was performed with reference to the Clinical and Laboratory Standards Institute (CLSI) guidelines.
(§2) After the frozen strains were subcultured, a single colony was picked and re-suspended in normal saline or sterile water in a tube. The bacterial suspension was vortexed and adjusted to 0.5 McF using a spectrophotometer at the wavelength of 530 nm. The bacterial solution was taken by a pipette, added to a culture medium, diluted and mixed well, and seeded to a bacterial assay plate.
(§3) The 96-well plate was affixed with a disposable sealing film, shaken and mixed well, and visually observed using a plate reader. The minimum concentration of the compounds capable of inhibiting the growth of bacteria was defined as MIC as compared to the growth controls.

[2] = system: Carbapenem-resistant Enterobacteriaceae (CRE); assay: Test Example 1: antibacterial activity test (MIC); assay type: cell-based
Protocol: as §1, §2, §3

[3] = system: Carbapenem-resistant Pseudomonas aeruginosa (CRPA); assay: Test Example 1: antibacterial activity test (MIC); assay type: cell-based
Protocol: as §1, §2, §3

[4] = system: Carbapenem-resistant Acinetobacter baumannii (CRAB, Acinetobacter baumannii); assay: Test Example 2: antibacterial activity test (MIC); assay type: cell-based; conditions: ID-CAMHB, read-out: ID-CAMHB, MIC
In short: (§4)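 MIC by CLSI broth microdilution: compounds serially 2-fold diluted in sterile saline, 32–0.031 μg/mL (11 points, duplicate wells), added to bacterial suspension at 2-8×10^5 CFU/mL, with drug-free growth controls.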

[5] = system: Carbapenem-resistant Enterobacteriaceae (CRE, Klebsiella pneumoniae); assay: Test Example 2: antibacterial activity test (MIC); assay type: cell-based; conditions: ID-CAMHB, read-out: ID-CAMHB, MIC
In short: as §4

[6] = system: Carbapenem-resistant Pseudomonas aeruginosa (CRPA, Pseudomonas aeruginosa); assay: Test Example 2: antibacterial activity test (MIC); assay type: cell-based; conditions: ID-CAMHB, read-out: ID-CAMHB, MIC
In short: as §4

[7] = system: Control Strain Pseudomonas aeruginosa ATCC 27853; assay: Test Example 2: antibacterial activity test (MIC); assay type: cell-based; conditions: ATCC27853, ID-CAMHB, ATCC 27853, read-out: ID-CAMHB, MIC
In short: as §4

[8] = system: Control strain Escherichia coli ATCC 25922; assay: Test Example 2: antibacterial activity test (MIC); assay type: cell-based; conditions: ATCC25922, ID-CAMHB, ATCC 25922, read-out: ID-CAMHB, MIC
In short: as §4

[9] = Test Example 3: pharmacokinetic study in cynomolgus monkeys; assay type: in vivo; conditions: cynomolgus monkey, plasma, 10 mg/kg single intravenous infusion, individual animals
Protocol: An appropriate amount of a test compound was weighed precisely and added to a container, and 0.9% sodium chloride injection and 0.2 M NaOH solution were added thereto in an ice bath until the test compound was completely dissolved, so that a sample solution at a concentration of 2 mg/mL was obtained followed by storage at 2-8° C. for later use.
Species and strain: cynomolgus monkey Animal grade: general grade Animal source: Guangxi Xiongsen Primate Experimental Animal Breeding Development Co., Ltd. Number of the using of laboratory animal: SYXK (Su) 2019-0012
6 cynomolgus monkeys (half male and half female) were selected and randomly divided into 3 groups with 1 animal/sex in each group. The cynomolgus monkeys were administered with the test sample at a dose of 10 mg/kg by the single intravenous infusion. Blood samples were collected from each group of animals at the following time points: before administration, and 5 min, 15 min, 0.5 h, 1 h, 2 h, 4 h, 6 h, and 8 h after administration. In the test, the concentration of each test compound in the plasma of the cynomolgus monkey was detected by the LC-MS/MS method, and the lower limit of quantification of the analysis methods for the plasma samples were all 1 μg/mL. The plasma concentration data were analyzed by the non-compartmental analysis (NCA) of the analysis software for pharmacokinetic data, WinNonlin, pharmacokinetic parameters were calculated, and pharmacokinetic characteristics of the test compounds in cynomolgus monkeys after administration were investigated, with the results shown in the following table

[10] = both sexes, cynomolgus, iv, 10 mg/kg

## CC(C)(O/N=C(\C(=O)N[C@@H]1C(=O)N2C(C(=O)[O-])=C(C[N+]3(CCNC(=O)c4ccc(O)c(O)c4Cl)CCCC3)CS[C@H]12)c1csc(N)n1)C(=O)O [Cefiderocol, reference compound]
[1]; CRAB strain No. 100085
  MIC: 0.5 µg/mL (≈ 0.665 µM)
[1]; CRAB strain No. 100333
  MIC: 2 µg/mL (≈ 2.66 µM)
[1]; CRAB strain No. 110440
  MIC: 1.5 µg/mL (≈ 1.99 µM)
[1]; CRAB strain No. 110477
  MIC: 1 µg/mL (≈ 1.33 µM)
[1]; CRAB strain No. 110517
  MIC: 0.5 µg/mL (≈ 0.665 µM)
[2]; CRE strain No. 100109
  MIC: 1 µg/mL (≈ 1.33 µM)
[2]; CRE strain No. 100186
  MIC: 0.5 µg/mL (≈ 0.665 µM)
[2]; CRE strain No. 110502
  MIC: 12 µg/mL (≈ 16 µM)
[2]; CRE strain No. 110525
  MIC: 6 µg/mL (≈ 7.98 µM)
[2]; CRE strain No. 311277
  MIC: 5 µg/mL (≈ 6.65 µM)
[3]; CRPA strain No. 100110
  MIC: 0.047 µg/mL (≈ 0.0625 µM)
[3]; CRPA strain No. 110163
  MIC: 1 µg/mL (≈ 1.33 µM)
[3]; CRPA strain No. 110224
  MIC: 0.75 µg/mL (≈ 0.997 µM)
[3]; CRPA strain No. 110358
  MIC: 1 µg/mL (≈ 1.33 µM)
[3]; CRPA strain No. 110390
  MIC: 0.5 µg/mL (≈ 0.665 µM)
[4]; FDA-CDC AR-BANK #0036 (strB, OXA-65, OXA-24, strA, sul2)
  MIC: 0.25 µg/mL (≈ 0.332 µM)
[4]; FDA-CDC AR-BANK #0052 (OXA-58, OXA-100, sul2)
  MIC: 0.0625 µg/mL (≈ 0.0831 µM)
[4]; FDA-CDC AR-BANK #0063 (OXA-23, OXA-65, OXA-24, sul2)
  MIC: 8 µg/mL (≈ 10.6 µM)
[4]; FDA-CDC AR-BANK #0070 (OXA-58, OXA-100, sul2)
  MIC: 0.125 µg/mL (≈ 0.166 µM)
[4]; FDA-CDC AR-BANK #0101 (strB, OXA-65, OXA-24, strA, sul2)
  MIC: 1 µg/mL (≈ 1.33 µM)
[5]; FDA-CDC AR-BANK #0361 (TEM-1; SHV-12; KPC-2)
  MIC: 2 µg/mL (≈ 2.66 µM)
[5]; FDA-CDC AR-BANK #0362 (TEM-1; SHV-11; KPC-2)
  MIC: 0.5 µg/mL (≈ 0.665 µM)
[5]; FDA-CDC AR-BANK #0363 (TEM-1; SHV-12; KPC-2)
  MIC: 0.25 µg/mL (≈ 0.332 µM)
[5]; FDA-CDC AR-BANK #0438 (aph(3′)-Ia, dfrA12, KPC-3, OmpK35, oqxA, oqxB, SHV-11)
  MIC: 2 µg/mL (≈ 2.66 µM)
[5]; FDA-CDC AR-BANK #0453 (KPC-3, OmpK35, oqxA, oqxB, SHV-11, TEM-1B)
  MIC: 1 µg/mL (≈ 1.33 µM)
[6]; FDA-CDC AR-BANK #0439 (aac(6′)-Il, aadA1b, BCR1, IMP-18, OXA-50)
  MIC: 0.25 µg/mL (≈ 0.332 µM)
[6]; FDA-CDC AR-BANK #0441 (KPC-2)
  MIC: 1 µg/mL (≈ 1.33 µM)
[6]; FDA-CDC AR-BANK #0444 (aac(6′)-Il, dfrB5, OXA-4, tet(G), VIM-2)
  MIC: 2 µg/mL (≈ 2.66 µM)
[6]; FDA-CDC AR-BANK #0457 (aadA6, VIM-2)
  MIC: 0.125 µg/mL (≈ 0.166 µM)
[7]
  MIC: 0.0625 µg/mL (≈ 0.0831 µM)
[8]
  MIC: 0.0625 µg/mL (≈ 0.0831 µM)
[9]; [10]
  AUC(0-inf): 32400 ng·h/mL
  AUC(0-t): 26200 ng·h/mL
  clearance: 5.14 mL/min/kg
  half-life: 51.6 min
[9]; both sexes, cynomolgus, iv, 10 mg/kg, read-out: Cmax
  Cmax: 30500 ng/mL
[9]; both sexes, cynomolgus, iv, 10 mg/kg, read-out: MRT
  MRT: 42 min
[9]; both sexes, cynomolgus, iv, 10 mg/kg, read-out: Vd
  Vd: 0.381 L/kg
[9]; both sexes
  Tmax: 4.8 min
[9]; 10 mg/kg
  AUC last: 23940 ng·h/mL
  AUCinf: 28350 ng·h/mL
  CL: 5.8793 mL/min/kg
  Cmax: 24330 ng/mL
  Vd: 0.37963 L/kg
  t1/2: 45 min
